Measurements reported in patent publication US6355799B1, “Substituted benzene compounds, process for their preparation, and herbicidal and defoliant compositions containing them” (ISK Americas Incorporated, priority 1997, dated 2002).

Columns and labels:
Assay type in all cases: in vivo
Conditions in all cases: pre-emerge, 14 days after application, rating scale 0-100
[1] = test system: redroot pigweed (Amaranthus retroflexus, AMARE); test: Pre-emerge test, greenhouse herbicide activity screening
Method in brief: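 Rating: 0–100 visual injury, 14 DAA. Application: acetone, 187 l/ha, 15–1000 g ai/ha, flat-fan track sprayer with nozzle 40–45 cm above soil or canopy. Post-emerge runs used 0.25% v/v surfactant on 2–3 leaf plants.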

[2] = test system: large crabgrass (Digitaria sanguinalis, DIGSA); test: as above
Method in brief: (§1)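 Herbicidal damage is scored 0 (none) to 100 (complete plant death) two weeks after a simulated field spray. Rates span 15–1000 g ai/ha, delivered in acetone at 187 l/ha. For post-emergence treatments, plants have 2–3 leaves and the spray carries 0.25% v/v non-ionic surfactant.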

[3] = test system: sicklepod (Cassia obtusifolia, CASOB); test: as above
Method in brief: as §1

[4] = test system: velvetleaf (Abutilon theophrasti, ABUTH); test: as above
Method in brief: as §1

[5] = test system: barnyardgrass (Echinochloa crus-galli, ECHCG); test: as above
Method in brief: as §1

[6] = test system: green foxtail (Setaria viridis, SETVI); test: as above
Method in brief: as §1

[7] = test system: common ragweed (Ambrosia artemisizfolia L., AMBEL); test: as above
Method in brief: as §1

[8] = test system: ivyleaf morningglory (Ipomoea hederacea, IPOHE); test: as above
Method in brief: as §1

[9] = test system: johnsongrass (Sorghum halepense, SORHA); test: as above
Method in brief: as §1

[10] = test system: lambsquarters (Chenopodium album, CHEAL); test: as above
Method in brief: as §1

[11] = test system: upland rice (Oryza sp., var. Tebonnet, RICE); test: Pre-emerge test, crop safety
Method in brief: (§2)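 Compounds in acetone were track-sprayed at 187 l/ha, 15–1000 g ai/ha, onto sandy loam pots. Pre-emerge seeds were sown one day before spraying, with surface watering afterwards. Post-emerge plants were at the 2–3 leaf stage and sprayed with 0.25% v/v non-ionic surfactant. Injury was rated 0–100 at 14 days.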

[12] = test system: field corn (Zea mays L., var. Dekalb 535, CORN); test: Pre-emerge test, crop safety
Method in brief: as §2

CCOC(=O)C(Cl)Cc1c(OCC)c(Cl)cc(F)c1-n1c(=O)cc(C(F)(F)F)n(C)c1=O (stereo not drawn) [14-64]
phytotoxicity rating AMARE ([1]; 63 g ai/ha): 100 | phytotoxicity rating AMARE ([1]; 250 g ai/ha): 100 | phytotoxicity rating DIGSA ([2]; 63 g ai/ha): 50 | phytotoxicity rating DIGSA ([2]; 250 g ai/ha): 100 | phytotoxicity rating CASOB ([3]; 63 g ai/ha): 0 | phytotoxicity rating CASOB ([3]; 250 g ai/ha): 0 | phytotoxicity rating ABUTH ([4]; 63 g ai/ha): 90 | phytotoxicity rating ABUTH ([4]; 250 g ai/ha): 100 | phytotoxicity rating ECHCG ([5]; 63 g ai/ha): 0 | phytotoxicity rating ECHCG ([5]; 250 g ai/ha): 95 | phytotoxicity rating SETVI ([6]; 63 g ai/ha): 0 | phytotoxicity rating SETVI ([6]; 250 g ai/ha): 100 | phytotoxicity rating AMBEL ([7]; 63 g ai/ha): 20 | phytotoxicity rating AMBEL ([7]; 250 g ai/ha): 60 | phytotoxicity rating IPOHE ([8]; 63 g ai/ha): 0 | phytotoxicity rating IPOHE ([8]; 250 g ai/ha): 0 | phytotoxicity rating SORHA ([9]; 63 g ai/ha): 0 | phytotoxicity rating SORHA ([9]; 250 g ai/ha): 20 | phytotoxicity rating CHEAL ([10]; 63 g ai/ha): 60 | phytotoxicity rating CHEAL ([10]; 250 g ai/ha): 100 | phytotoxicity rating RICE ([11]; 63 g ai/ha): 0 | phytotoxicity rating RICE ([11]; 250 g ai/ha): 10 | phytotoxicity rating CORN ([12]; 63 g ai/ha): 0 | phytotoxicity rating CORN ([12]; 250 g ai/ha): 0
